Literature values in patent US20260232582A1, “PHARMACEUTICAL COMPOSITION OF ENSIFENTRINE WITH PHARMACEUTICALLY ACCEPTABLE PROPELLANTS” (CIPLA LIMITED, priority 2023, published 2026).

How the values were obtained:
[1] = test system: COPD
[2] = test system: subjects; conditions: clinical trials involving more than 2,200 subjects
[3] = test system: COPD patients; conditions: Phase 2; DPI and pMDI formulations

Q: Which “Primary endpoint (improvements in lung function)” value ([1]; nebulized, both ENHANCE-1 and ENHANCE-2 trials) does the source give for COc1cc2c(cc1OC)-c1c/c(=N\c3c(C)cc(C)cc3C)n(CCNC(N)=O)c(=O)n1CC2 [Ensifentrine] here?
A: met the primary endpoint

Q: And the “Rate and risk of COPD exacerbations” value ([1]; pooled analysis from ENHANCE-1 and ENHANCE-2)?
A: significantly reduced

Q: And the “Tolerability in clinical trials” value [2]?
A: well tolerated

Q: And the “Lung function in COPD patients” value [3]?
A: significant improvements in lung function
